From patent US11053204B2, “Pyrimidinyloxy benzene derivatives as herbicides” (FMC Corporation, priority 2015, dated 2021)

Tests used:
Assay type in all cases: in vivo
[1] = system: morningglory (Ipomoea coccinea); assay: Test C postemergence, plant response rating; conditions: for Plant response rating, Morningglory: scale 0 to 100; for Morningglory plant response rating: scale 0 to 100 (0 no effect, 100 complete control)
Outline: (§1)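 Preemergence: seeds sown in loam–sand blend or silt loam and sprayed with test chemicals in a non-phytotoxic surfactant-containing solvent. Postemergence: potted plants at 2–18 cm (1–4-leaf stage) sprayed with the same formulation. After 13–15 d in greenhouse, visual rating versus controls on 0 (no effect) to 100 (complete control) scale.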

[2] = system: chickweed (common chickweed, Stellaria media); assay: Test C postemergence, plant response rating; conditions: for Plant response rating, Chickweed: scale 0 to 100; for Chickweed plant response rating: scale 0 to 100 (0 no effect, 100 complete control)
Outline: as §1

[3] = system: foxtail, giant (giant foxtail, Setaria faberii); assay: Test C postemergence, plant response rating; conditions: for Plant response rating, Foxtail, Giant: scale 0 to 100; for Foxtail, Giant plant response rating: scale 0 to 100 (0 no effect, 100 complete control)
Outline: as §1

[4] = system: ragweed (common ragweed, Ambrosia elatior); assay: Test C preemergence, plant response rating; conditions: Preemergence
Outline: as §1

[5] = system: morningglory (Ipomoea coccinea); assay: Test C preemergence, plant response rating; conditions: Preemergence
Outline: as §1

[6] = system: nutsedge, yellow (yellow nutsedge, Cyperus esculentus); assay: Test C preemergence, plant response rating; conditions: Preemergence
Outline: as §1

[7] = system: oilseed rape (Brassica napus); assay: Test C preemergence, plant response rating; conditions: Preemergence
Outline: as §1

[8] = system: foxtail, giant (giant foxtail, Setaria faberii); assay: Test C preemergence, plant response rating; conditions: Preemergence
Outline: as §1

[9] = system: blackgrass (Alopecurus myosuroides); assay: Test C preemergence, plant response rating; conditions: Preemergence
Outline: as §1

[10] = system: ryegrass, Italian (Italian ryegrass, Lolium multiflorum); assay: Test C preemergence, plant response rating; conditions: Preemergence
Outline: as §1

[11] = system: waterhemp (common waterhemp, Amaranthus rudis); assay: Test C preemergence, plant response rating; conditions: Preemergence
Outline: as §1

[12] = system: wheat (winter wheat, Triticum aestivum); assay: Test C preemergence, plant response rating; conditions: Preemergence
Outline: as §1

soybean (Glycine max) = assay: Test C preemergence, plant response rating; conditions: Preemergence
Outline: as §1

[13] = system: lambsquarters (Chenopodium album); assay: Test C preemergence, plant response rating; conditions: Preemergence
Outline: as §1

[14] = system: crabgrass, large (large crabgrass, Digitaria sanguinalis); assay: Test C preemergence, plant response rating; conditions: Preemergence
Outline: as §1

corn (Zea mays) = assay: Test C preemergence, plant response rating; conditions: Preemergence
Outline: as §1

[15] = system: velvetleaf (Abutilon theophrasti); assay: Test C preemergence, plant response rating; conditions: Preemergence
Outline: as §1

[16] = system: ducksalad (Heteranthera limosa); assay: Test B flooded paddy test, plant response rating; conditions: 250 g ai/ha; Flood; scale of 0 to 100 where 0 is no effect and 100 is complete control; 13 to 15 days
Outline: (§2)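 Pots were flooded to 3 cm above the soil surface at treatment, compound applied directly to the paddy water, and that depth held throughout. Plants were kept in a greenhouse for 13 to 15 days, then visually rated against untreated controls.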

[17] = system: barnyardgrass (Echinochloa crus-galli); assay: Test B flooded paddy test, plant response rating; conditions: 250 g ai/ha; Flood; scale of 0 to 100 where 0 is no effect and 100 is complete control; 13 to 15 days
Outline: as §2

[18] = system: sedge, umbrella (small-flower umbrella sedge, Cyperus difformis); assay: Test B flooded paddy test, plant response rating; conditions: 250 g ai/ha; Flood; scale of 0 to 100 where 0 is no effect and 100 is complete control; 13 to 15 days
Outline: as §2

rice (Oryza sativa) = assay: Test B flooded paddy test, plant response rating; conditions: 250 g ai/ha; Flood; scale of 0 to 100 where 0 is no effect and 100 is complete control; 13 to 15 days
Outline: as §2

O=C(OCCC(F)(F)F)c1c(Br)cccc1Oc1ncc(Br)cn1 [Compound 33]
Plant response rating, Morningglory ([1]; 16 g ai/ha): 55 | Plant response rating, Morningglory ([1]; 31 g ai/ha): 65 | Morningglory plant response rating ([1]; 62 g ai/ha): 75 | Morningglory plant response rating ([1]; 125 g ai/ha): 65 | Plant response rating, Chickweed ([2]; 16 g ai/ha): 50 | Plant response rating, Chickweed ([2]; 31 g ai/ha): 55 | Chickweed plant response rating ([2]; 62 g ai/ha): 85 | Chickweed plant response rating ([2]; 125 g ai/ha): 85 | Plant response rating, Foxtail, Giant ([3]; 16 g ai/ha): 5 | Plant response rating, Foxtail, Giant ([3]; 31 g ai/ha): 10 | Foxtail, Giant plant response rating ([3]; 62 g ai/ha): 10 | Foxtail, Giant plant response rating ([3]; 125 g ai/ha): 20 | Plant response rating, Ragweed ([4]; 125 g ai/ha, scale of 0 to 100): 50 | Plant response rating, Ragweed ([4]; 16 g ai/ha, scale 0 to 100): 55 | Plant response rating, Ragweed ([4]; 31 g ai/ha, scale 0 to 100): 35 | Plant response rating, Ragweed ([4]; 62 g ai/ha, scale 0 to 100): 40 | Plant response rating, Morningglory ([5]; 125 g ai/ha, scale of 0 to 100): 40 | Plant response rating, Morningglory ([5]; 16 g ai/ha, scale 0 to 100): 0 | Plant response rating, Morningglory ([5]; 31 g ai/ha, scale 0 to 100): 0 | Plant response rating, Morningglory ([5]; 62 g ai/ha, scale 0 to 100): 25 | Plant response rating, Nutsedge, Yellow ([6]; 125 g ai/ha, scale of 0 to 100): 5 | Plant response rating, Nutsedge, Yellow ([6]; 16 g ai/ha, scale 0 to 100): 0 | Plant response rating, Nutsedge, Yellow ([6]; 31 g ai/ha, scale 0 to 100): 0 | Plant response rating, Nutsedge, Yellow ([6]; 62 g ai/ha, scale 0 to 100): 5 | Plant response rating, Oilseed Rape ([7]; 125 g ai/ha, scale of 0 to 100): 100 | Plant response rating, Oilseed Rape ([7]; 16 g ai/ha, scale 0 to 100): 50 | Plant response rating, Oilseed Rape ([7]; 31 g ai/ha, scale 0 to 100): 80 | Plant response rating, Oilseed Rape ([7]; 62 g ai/ha, scale 0 to 100): 85 | Plant response rating, Foxtail, Giant ([8]; 62 g ai/ha, scale of 0 to 100): 98 | Plant response rating, Foxtail, Giant ([8]; 125 g ai/ha, scale of 0 to 100): 100 | Plant response rating, Foxtail, Giant ([8]; 16 g ai/ha, scale 0 to 100): 60 | Plant response rating, Foxtail, Giant ([8]; 31 g ai/ha, scale 0 to 100): 95 | Plant response rating, Blackgrass ([9]; 62 g ai/ha, scale of 0 to 100): 70 | Plant response rating, Blackgrass ([9]; 125 g ai/ha, scale of 0 to 100): 90 | Plant response rating, Blackgrass ([9]; 16 g ai/ha, scale 0 to 100): 0 | Plant response rating, Blackgrass ([9]; 31 g ai/ha, scale 0 to 100): 10 | Plant response rating, Ryegrass, Italian ([10]; 125 g ai/ha, scale of 0 to 100): 85 | Plant response rating, Ryegrass, Italian ([10]; 16 g ai/ha, scale 0 to 100): 0 | Plant response rating, Ryegrass, Italian ([10]; 31 g ai/ha, scale 0 to 100): 30 | Plant response rating, Ryegrass, Italian ([10]; 62 g ai/ha, scale 0 to 100): 30 | Plant response rating, Waterhemp ([11]; 125 g ai/ha, scale of 0 to 100): 100 | Plant response rating, Waterhemp ([11]; 16 g ai/ha, scale 0 to 100): 100 | Plant response rating, Waterhemp ([11]; 31 g ai/ha, scale 0 to 100): 100 | Plant response rating, Waterhemp ([11]; 62 g ai/ha, scale 0 to 100): 100 | Plant response rating, Wheat ([12]; 125 g ai/ha, scale of 0 to 100): 5 | Plant response rating, Wheat ([12]; 16 g ai/ha, scale 0 to 100): 0 | Plant response rating, Wheat ([12]; 31 g ai/ha, scale 0 to 100): 0 | Plant response rating, Wheat ([12]; 62 g ai/ha, scale 0 to 100): 0 | Plant response rating, Soybean (soybean (Glycine max); 125 g ai/ha, scale of 0 to 100): 30 | Plant response rating, Soybean (soybean (Glycine max); 16 g ai/ha, scale 0 to 100): 15 | Plant response rating, Lambsquarters ([13]; 125 g ai/ha, scale of 0 to 100): 85 | Plant response rating, Lambsquarters ([13]; 16 g ai/ha, scale 0 to 100): 25 | Plant response rating, Lambsquarters ([13]; 31 g ai/ha, scale 0 to 100): 60 | Plant response rating, Lambsquarters ([13]; 62 g ai/ha, scale 0 to 100): 80 | Plant response rating, Crabgrass, Large ([14]; 62 g ai/ha, scale of 0 to 100): 100 | Plant response rating, Crabgrass, Large ([14]; 125 g ai/ha, scale of 0 to 100): 100 | Plant response rating, Crabgrass, Large ([14]; 16 g ai/ha, scale 0 to 100): 75 | Plant response rating, Crabgrass, Large ([14]; 31 g ai/ha, scale 0 to 100): 98 | Plant response rating, Corn (corn (Zea mays); 62 g ai/ha, scale of 0 to 100): 10 | Plant response rating, Corn (corn (Zea mays); 125 g ai/ha, scale of 0 to 100): 10 | Plant response rating, Corn (corn (Zea mays); 16 g ai/ha, scale 0 to 100): 0 | Plant response rating, Corn (corn (Zea mays); 31 g ai/ha, scale 0 to 100): 0 | Plant response rating, Velvetleaf ([15]; 125 g ai/ha, scale of 0 to 100): 100 | Plant response rating, Velvetleaf ([15]; 16 g ai/ha, scale 0 to 100): 5 | Plant response rating, Velvetleaf ([15]; 31 g ai/ha, scale 0 to 100): 30 | Plant response rating, Velvetleaf ([15]; 62 g ai/ha, scale 0 to 100): 55 | Plant response rating, Ducksalad [16]: 80 | Plant response rating, Barnyardgrass [17]: 0 | Plant response rating, Sedge, Umbrella [18]: 95 | Plant response rating, Rice (rice (Oryza sativa)): 0
